{
  "source": "patent US10251778B2",
  "about": "“Therapeutics dispensing device and methods of making same” (Baylor College of Medicine, priority 2012, dated 2019)",
  "origin": "cited, not measured here",
  "key": {"[1]": {"assay": "not given", "remark": "listed apart in the source"}, "[2]": {"settings": "in vitro"}, "[3]": {"settings": "Acrylate Polymer Nanosuspensions"}, "[4]": {"tested_on": "human cytomegalovirus (HCMV)", "settings": "Albumin Nanoparticles"}, "[5]": {"settings": "Poly(butyl)-cyano acrylate Nanopartilces"}},
  "note": "Where a name gives a salt, the structure may show the parent alone.",
  "data": [
    {"smiles": "CC[C@@H]1C(=O)OC[C@@H]1Cc1cncn1C", "note": "[Pilocarpine]", "values": [
      {"measurement": "Decreased IOP", "setting": "Microemulsions", "result": "Decreased IOP by 25%"},
      {"measurement": "decrease in IOP", "setting": "[5]", "result": "in IOP by 22%"},
      {"measurement": "Result (response)", "setting": "[1]; [5]", "result": "Enhanced mitotic response and decrease"}
    ]},
    {"smiles": "CC(=O)Nc1nnc(S(N)(=O)=O)s1", "note": "[Acetazolamide]", "values": [
      {"measurement": "Result (IOP)", "setting": "Liposomes", "result": "Produced a marked decrease in IOP"}
    ]},
    {"smiles": "CC[C@@H]1C(=O)OC[C@@H]1Cc1cncn1C", "note": "[pilocarpine base, pilocarpine]", "values": [
      {"measurement": "transcorneal penetration relative to the ionized form", "setting": "[2]", "result": "2-3 times"}
    ]},
    {"smiles": "CC(C(=O)O)c1ccc(-c2ccccc2)c(F)c1", "note": "(stereo not drawn) [Flurbiprofen]", "values": [
      {"measurement": "Result (drug levels in aqueous humour)", "setting": "[3]", "result": "Increased drug levels in aqueous humour"}
    ]},
    {"smiles": "Nc1nc2c(ncn2COC(CO)CO)c(=O)[nH]1", "note": "[GCV]", "values": [
      {"measurement": "Result (antiviral activity)", "setting": "[4]", "result": "Increased antiviral aciivity against human"}
    ]},
    {"smiles": "CC[C@@H]1C(=O)OC[C@@H]1Cc1cncn1C", "note": "[Pilocarpine HCl]", "values": [
      {"measurement": "Result (response and ocular bioavailability)", "setting": "[1]; Liposomes", "result": "Increased mitotic response and ocular"}
    ]},
    {"smiles": "CC[C@@H]1C(=O)OC[C@@H]1Cc1cncn1C", "note": "[Pilocarpine nitrate]", "values": [
      {"measurement": "Result (miotic activity)", "setting": "[1]; Dendrimers", "result": "Prolonged miotic activity"}
    ]}
  ]
}
